According to patent US20070203212A1, “METHOD OF TREATING OSTEOARTHRITIS” (WARNER-LAMBERT COMPANY, priority 2002, published 2007):

Tested on: carrageenan-induced thermal hyperalgesia
Assay: Carrageenan-induced thermal hyperalgesia (CITH), paw withdrawal latency
Assay type: in vivo, rat
Settings: single oral dose 30 mg/kg on Day 1, 4 hours post dose
Experimental: Male Sprague Dawley rats (200-300 g), obtained from Charles River, were housed in groups of 2 under a 12 hour light/dark cycle with food and water ad libitum. Animals were allowed to acclimate to the test room one hour prior to testing.
Thermal hyperalgesia was assessed using the rat plantar test (apparatus from Univ. California, San Diego) following a modified method of Hargreaves et al., 1988. Rats were habituated to the apparatus, which consisted of three perspex boxes that individually housed […] on an elevated glass table. A mobile radiant heat source (halogen lamp) was located under the glass table and focused onto the hind paw. Paw withdrawal latencies (PWL) were recorded in seconds (“s”). An automatic cut off point of 22.5 s was set to prevent tissue damage. The mean of 2-3 PWL was taken at each time point for both hind paws of each animal. The apparatus was calibrated to give a PWL of approximately 10 s before carrageenan administration.
After basal PWL were determined, animals receive an intraplantar 100 μL of 10 mg/mL) into the right hind paw. Lambda carrageenan (Sigma Chemical Co.) was dissolved in isotonic saline 5 minutes prior to injecting. PWL were reassessed following the same protocol 2 hours post carrageenan (this time point represented the start of peak hyperalgesia) to ascertain that hyperalgesia had developed. 6-(5-Carboxy-5-methyl-hexyloxy)-2,2-dimethyl-hexanoic acid, calcium salt was then administered orally via oral dosing needles 2.5 hours post carrageenan injection, and PWL were taken again at 30- or 60-minute intervals post drug administration for 6 hours.
Data consisted of the mean of 2-3 reads/paw for individual animals. Group data was the compiled individual means. Percent inhibition was calculated as follows for each time point: (mean drug treated−mean control)/(mean baseline−mean control)×100.

Question: Which “Inhibition of Pain (% versus control), CITH (paw withdrawal latency)” value does the source give for `CC(C)(CCCCOCCCCC(C)(C)C(=O)[O-])C(=O)[O-].[Ca+2]` [CI-1027, 6-(5-carboxy-5-methyl-hexyloxy)-2,2-dimethyl-hexanoic acid, calcium salt] here?
Answer: Its value is 65 ± 20%.
